The values that follow come from patent publication US20220370445A1, “METHODS FOR ADMINISTERING (R)-N-[4-(1,4,5,6-TETRAHYDRO-6-OXO-3-PYRIDAZINYL)PHENYL]ACETAMIDE” (ORION CORPORATION, priority 2019, published 2022).

Structures can show the parent of a compound that is named as a salt.

A short description of data set [1]: Bioavailability of compound (I) by ocular, intranasal or oromucosal administration vs i.v. in dogs. It is filed as in vivo. Particulars: Beagle dogs; for bioavailability: dog, plasma, n=6. On the procedure:
(§1) Bioavailability of compound (I) given by ocular (4 μg/kg), intranasal (4 μg/kg) or oromucosal dosing (5 μg/kg) was compared to 4 μg/kg intravenous (i.v.) administration in Beagle dogs.
The study was a crossover study with at least 6 days washout period between the treatment periods. The animals were fasted overnight before dosing by withdrawing the remaining feed (if any) at least 12 h before dosing. On dosing days, food was offered approximately at 4 h after dosing (after the 4 h blood sampling).
(§2) Composition of Formulation Example 1 was used for ocular administration, composition of Formulation Example 2 was used for intranasal administration and composition of Formulation Example 3 was used for oromucosal administration.
(§3) Ocular and intranasal doses were divided equally to both eyes or both nostrils. Oromucosal gel formulation was administered to buccal/gingival mucosa of the dog. The intravenous dose was administered in cephalic vein in slow i.v. bolus dosed within 30 seconds. Blood samples were collected into K2EDTA tubes over a 48 h period after each treatment at the following time points: predose, 2 min, 5 min, 10 min, 20 min, 30 min, 45 min, 1 h, 2 h, 4 h, 6 h, 8 h, 12 h, 24 h and 48 h post administration. Aliquots of plasma were prepared and stored frozen until analysis. Compound (I) concentration in plasma was determined using Liquid chromatography-triple quadrupole mass spectrometry. The lower limit of quantification for compound (I) in dog plasma was 0.1 ng/ml.

A short description of data set [2]: Local tolerance of compound (I) given by ocular, intranasal or oromucosal administration to dogs. It is filed as in vivo. The settings on record: any administration route (ocular, intranasal, oromucosal), Beagle dogs. As for the experimental part:
Experiment 1. Bioavailability and Local Tolerance of Compound (I) Given by Ocular, Intranasal or Oromucosal Administration to Dogs.
as §1, §2, §3

A short description of data set [3]: Bioavailability of compound (I) given by oropharyngeal aspiration to rats vs i.v. Type of data set: in vivo, Male Sprague Dawley rats. The settings on record: for bioavailability: male, Sprague Dawley, rat, plasma, other: oropharyngeal aspiration, read-out: bioavailability of oropharyngeal administration. As for the experimental part: Oropharyngeal aspiration administration has been developed as an alternative technique for the inhaled delivery of medicaments to the lungs and provides a means to mimic human lung exposure of medicaments by inhalation (Hulland, K. et al., American Journal of Respiratory and Critical Care Medicine 2016, 193:A5928 and Barbayianni, I. et al., Frontiers of Medicine, September 2018, Vol 5, Article 269, 1-6).
Bioavailability of compound (I) given by oropharyngeal aspiration (dosing 10 or 20 μg/kg) was compared to 10 μg/kg intravenous (i.v.) administration in Male Sprague Dawley rats.
Composition for oropharyngeal dosing was as follows:
The oropharyngeal dose was administered to animals which were lightly anaesthetized by isoflurane inhalation. The animals were placed on a vertical stand the top teeth hooked over a rubber band to open the mouth. The 100 μl dose was dispensed by positive displacement pipette at the back of the throat of the animal while holding the tongue to prevent swallowing and nose held to encourage breathing through the mouth for (at least) 3 breaths. The nose released but tongue continually held for an additional couple of breaths to ensure solution deposited in the lungs and not swallowed. All animals recovered consciousness post dose.
The intravenous dose was administered as a slow bolus injection over 30 seconds via the lateral tail vein.
Blood samples were collected into a K2EDTA tube such as to obtain a sample after 5 min, 15 min, 30 min, 1 h, 3 h, 5 h, 8 h, 12 h, 24 h and 48 h post administration.
Aliquots of plasma were prepared and stored frozen until analysis. Compound (I) concentration in plasma was determined using a liquid chromatography-tandem mass spectrometry (LC-MS/MS). The lower limit of quantification for compound (I) in rat plasma was 0.02 ng/ml.

The subject of data set [4] is heart rate. The data set can be described thus: Effect of compound (I) alone or together with ivabradine on heart rate by oromucosal administration (telemetry). It is filed as in vivo, Beagle dogs. As for the experimental part: Male beagle dogs (n=3) were given a dose of compound (I) using oromucosal gel according to Formulation Example 3a alone (dosing period 1) or together with a dose of ivabradine using oromucosal gel according to Formulation Example 3c (dosing period 2). The dose of compound (I) was 18.5 μg/kg and the dose of ivabradine was 1 mg/kg (calculated as ivabradine base). Each dose was divided into two sites on gingival mucosa. The washout period between the dosing periods was at least 6 days. Heart rate of the animals was assesses at baseline and post-dosing using telemetry acquisition system.

For data set [5] the following is noted: in man; cited from earlier work.

Regarding `CC(=O)Nc1ccc(C2=NNC(=O)C[C@H]2C)cc1` [Compound (I), (R)—N-[4-(1,4,5,6-tetrahydro-4-methyl-6-oxo-3-pyridazinyl)phenyl]acetamide], the bioavailability stood at 82% in data set [1] (other: intranasal (drops), 4 ug/kg, intranasal drops 4 μg/kg vs 4 μg/kg i.v.); 67% in data set [1] (other: ocular (eye drops), 4 ug/kg, eye drops, ocular 4 μg/kg vs 4 μg/kg i.v.); 78% in data set [1] (other: oromucosal (gel to buccal/gingival mucosa), 5 ug/kg, oromucosal gel 5 μg/kg vs 4 μg/kg i.v.); 94.9% in data set [3] (oropharyngeal 0.01 mg/kg vs 0.01 mg/kg i.v.); 97.1% in data set [3] (oropharyngeal 0.02 mg/kg vs 0.01 mg/kg i.v.). Also, the absorption entry in data set [1] (ocular drops, intranasal drops or oromucosal gel) is on record as “fast absorption comparable to intravenous administration”; in data set [3] (oropharyngeal route) it was “fast absorption comparable to intravenous administration”. Besides, in data set [2], the “irritation (local tolerance)” value is listed as “No significant irritation”. Moreover, in data set [4] (oromucosal gel 18.5 μg/kg alone, male beagle dogs n=3, baseline 93±9 bpm), the “heart rate after dosing” value turned out to be 167±8 bpm. The elimination half-life result in data set [5] was “about 72 h”.
`COc1cc2c(cc1OC)CC(=O)N(CCCN(C)C[C@H]1Cc3cc(OC)c(OC)cc31)CC2` [ivabradine hydrochloride, reference compound]: the “prevention of heart rate increase induced by compound (I)” value in data set [4] (oromucosal 1 mg/kg concurrent with compound (I) 18.5 μg/kg oromucosal, beagle dogs) is reported as “completely prevent the heart rate increase”.
